Assays:
Type in all cases: cell-based, human
hMSCs [1] = test: ALP production / osteogenic markers of hMSCs with soluble citrate, PSer or inhibitor (PNPP assay, western blot)
From the text: (§1) hMSCs with passage ≤6 were used in the present differentiation study. […] For osteo-phenotype progression assessment, cells were lysed, and alkaline phosphatase (ALP) production was quantified by using p-nitrophenyl phosphate (PNPP) as its substrate. Alizarin Red was used to stain the calcium nodules formed by the differentiating cells, and the calcium content in the nodules was quantified by Calcium Assay Kit (Sigma-Aldrich, St. Louis, Mo.) and normalized to protein amount as determined by BCA protein assay kit (Thermo Scientific™, Waltham, Mass.). Expression of osteogenic master transcription factor Runx2 was examined by real-time PCR and by using a Runx2 ELISA kit (American Research Products, Inc.™, Waltham, Mass.) according to manufacturer's instructions. Moreover, the expression of bone matrix proteins Collagen type I and osteopontin (OPN) were evaluated with real-time PCR, while OPN expression were also observed by immunofluorescent staining. Western blot was performed to evaluate the expression of ALP, OPN and SLC13a5 before or after differentiating for predetermined time periods.
For ALP expression analysis, cell samples were lysed using RIPA buffer, and the cell lysate was centrifuged to remove debris. Then ALP activity measurement was performed by utilizing p-nitrophenyl phosphate (PNPP) which is hydrolyzed by ALP into a yellow colored product. Briefly, the PNPP stock solution (IM) was diluted with ALP assay buffer at a ratio of 1:100, 50 μL of which was subsequently added to 50 μL of lysate sample. After 10-30 min of incubation at 37° C., the plates were measured at 405 nm on a plate reader (TECAN, Männedorf, Switzerland). The same cell lysate solutions were used to determine DNA amount via a PicoGreen dsDNA quantification kit (Invitrogen, Carlsbad, Calif.) according to the manufacturer's instructions.
After protein quantification by BCA assay, gel electrophoresis was carried out on AnykD™ Mini-Protean TGX stain-free Protein gels at 50 V for 10 min, followed by 250 V for 10-20 min, and was transferred to PVDF membranes with the Trans-Blot Turbo™ system. […]

hMSCs [2] = test: Intracellular ATP determination in hMSCs
hMSCs [3] = test: Oxygen consumption rate (OCR) study in hMSCs
hMSCs [4] = test: hMSC proliferation with citrate (CCK-8); conditions: citrate 0 to 2000 μM, pH 7.4, in growth medium (GM)
From the text: as §1
Human mesenchymal stem cells (hMSCs; Lonza) were cultured in low glucose Dulbecco's Modified Eagle Medium (DMEM) with 10 vol. % fetal bovine serum (FBS) (Atlanta Biologicals; Flowery Branch, Ga.) and GlutaMAX (Gibco Laboratories, Gaithersburg, Md.). […]

hMSCs [5] = test: Alizarin Red staining and calcium quantification of hMSCs; conditions: citrate in growth medium (GM)
Experimental: hMSCs with passage ≤6 were used in the present differentiation study. […] Alizarin Red was used to stain the calcium nodules formed by the differentiating cells, and the calcium content in the nodules was quantified by Calcium Assay Kit (Sigma-Aldrich, St. Louis, Mo.) and normalized to protein amount as determined by BCA protein assay kit (Thermo Scientific™, Waltham, Mass.).
For Alizarin Red staining, cell samples were fixed with 4% paraformaldehyde, and 40 mM Alizarin red solutions were used to stain calcium nodules for 30 min with gentle shaking. After thoroughly washing, the stained cells were observed on a Microscope (Nikon, Tokyo, Japan). For calcium quantification, cell samples were washed with PBS and decalcified in 0.6 N HCl for 12 h with gentle shaking. Calcium content in the supernatants was determined colorimetrically by using the Calcium assay kit (Sigma-Aldrich, St. Louis, Mo.), while protein content in cell lysate solutions (lysed with RIPA buffer) was determined using the Pierce BCA protein assay kit (Thermo Scientific™, Waltham, Mass.) according to manufacturer's instructions.

hMSCs [6] = test: Real-time PCR of osteogenic genes in differentiating hMSCs; conditions: 200 μM citrate vs OG control, 7 and 14 days
From the text: as §1
Total RNA from whole cells was isolated with QIAGEN RNeasy kit (Hilden, Germany) and was transcribed into cDNA using High-Capacity cDNA Reverse Transcription Kits (Applied Biosystems™, Foster City, Calif.). For quantitative analysis, real-time PCR was performed using cDNA as the template, together with TaqMan Gene Expression Master Mix and the TaqMan Gene Expression Assays with both primers and probe included (Applied Biosystems™, Foster City, Calif.), and using the ABI 7900HT Fast Real-Time PCR system (Applied Biosystems™, Foster City, Calif.) according to manufacturer's instructions. Human PPIA (Cyclophilin A) was used for normalization. The primers and TaqMan probe for human Runx2, CoL1A1, SPP1 and PPIA were Hs00231692_ml, Hs00164004_ml, Hs00959010_ml, and Hs99999904_ml, respectively.

hMSCs [7] = test: Runx2 ELISA in hMSCs; conditions: citrate treatment in OG, as early as day 4
From the text: as §1

hMSCs [8] = test: Protein synthesis assay in undifferentiated hMSCs; conditions: for citrate-mediated protein synthesis in presence of inhibitor: GM, with citrate
Experimental: Upon 24 and 96 hours incubation, protein synthesis was measured by labeling the intracellular translating proteins with clickable probes (Protein Synthesis Assay kit, Cayman Chemical, Ann Arbor, Mich.).

hMSCs [9] = test: Citrate assay, intracellular citrate in hMSCs; conditions: 24 h incubation with citrate supplemented medium
hMSCs [10] = test: Extracellular acidification rate (ECAR) / glycolysis and lactate production in hMSCs; conditions: undifferentiated hMSCs, 24 h citrate treatment in GM
[11] = differentiating hMSCs in OG, vs OG medium control
[12] = undifferentiated hMSCs, 24 h citrate treatment in GM

N[C@@H](COP(=O)(O)O)C(=O)O [PSer, Phosphoserine]
citrate-promoted osteo-phenotype progression (ALP production) (hMSCs [1]; 40 μM PSer with citrate in OG, 21 days): substantially enhanced
ALP production (hMSCs [1]; higher PSer dosages (up to 1000 μM) with citrate in OG, 21 days): further elevation of ALP production
intracellular ATP (hMSCs [2]; [11]): showed no difference from the OG medium control
intracellular ATP levels (hMSCs [2]; undifferentiated hMSCs, addition of PSer with or without citrate treatment): no significant effect

COc1ncc(C)cc1CC[C@@](O)(CC(=O)O)C(=O)O [PF06761281, reference compound]
citrate-induced elevation of ALP production with SLC13a5 inhibitor (hMSCs [1]; 14 days in OG, citrate plus inhibitor): negated the citrate-induced elevation of ALP production
citrate effect on metabolic flux to elevate intracellular ATP levels, with SLC13a5 inhibitor (hMSCs [2]; undifferentiated hMSCs, citrate plus inhibitor): could be abolished
citrate-increased mitochondrial respiration with SLC13a5 inhibitor (hMSCs [3]; hMSCs differentiated for 14 days, 1 day treatment in OG): likewise abolished

O=C(O)CC(O)(CC(=O)O)C(=O)O [citrate]
hMSCs proliferation (hMSCs [4]): little increase
calcium deposition by Alizarin Red staining (hMSCs [5]): absence of calcium deposition
expression of Col1a1 (real-time PCR) (hMSCs [6]): remarkably elevated expression
expression of Runx2 (real-time PCR) (hMSCs [6]): remarkably elevated expression
expression of SPP1 (real-time PCR) (hMSCs [6]): remarkably elevated expression
Runx2 protein (ELISA) (hMSCs [7]): favorable accumulation
protein synthesis (hMSCs [8]; 200 μM citrate in GM, 24 h and 96 h, vs control without citrate): increased significantly
intracellular citrate (hMSCs [9]): marked increase
intracellular ATP (hMSCs [2]; [11]): showed no difference from the OG medium control
intracellular ATP (hMSCs [2]; hMSCs differentiated for 14 days, citrate in OG for 1 or 4 days): significant effects on intracellular ATP only after 4 days of treatment
intracellular ATP levels (hMSCs [2]; [12]): elevated intracellular ATP levels
mitochondrial respiration (OCR) (hMSCs [3]; hMSCs differentiated for 14 days, 1 day citrate treatment in OG): markedly increased
oxygen consumption rate (OCR) (hMSCs [3]; [12]): increased oxygen consumption rate
glycolytic flux (ECAR) (hMSCs [10]): decrease in glycolytic flux
production of lactate (hMSCs [10]): reduced production of lactate

CCC(=O)N1CCN(c2ccc(-n3c(=O)ccc4cnc5ccc(-c6cnc7ccccc7c6)cc5c43)cc2C(F)(F)F)CC1 [Torin1]
citrate-mediated protein synthesis in presence of inhibitor (hMSCs [8]): abolished this activity

C[C@@H]1C[C@@H]([C@H](O)CC2CC(=O)NC(=O)C2)C(=O)[C@@H](C)C1 [Cycloheximide]
citrate-mediated protein synthesis in presence of inhibitor (hMSCs [8]): abolished this activity

— patent US11738042B2, “Compositions and methods for promoting bone regeneration” (The Penn State Research Foundation, priority 2018, dated 2023)
